Laboratory results taken from US12655101B2, “Small molecules with antibacterial activity” (NEW MEXICO TECH UNIVERSITY RESEARCH PARK CORPORATION, priority 2021, dated 2026).
Values after ≈ are worked out from the molar mass of the structure shown. Read-outs that look alike come from different tables or passages of the source.

How the values were obtained:
Assay type in all cases: cell-based
E. coli pNMT41 = assay: 6-chloro-4-methyl-umbelliferyl-β-D-glucuronide assay for beta-glucuronidase (inner membrane disruption); details: 10 μg/mL PME
Protocol: E. coli pNMT 41 was grown from a glycerol stock by placing a small volume of cells onto a MHA plate. The MHA plate was incubated overnight at 37° C. A single colony was subsequently used to inoculate MHB+100 μg/mL ampicillin to obtain a bacterial broth suspension. The MHB broth suspension was grown at 37° C. on a rotary shaking incubator (100 rpm) for 12 hours. The bacterial cell concentration was adjusted to ˜1×10^7 CFU/mL in MHB using OD at 595 nm. The cells were washed 3× by spinning by centrifuge and washing with 500 μL medium 200. The cells were resuspended in 7 mL medium 200. The cells were treated with 10 μM melittin, 6, 12, 24, and 100 μM Compound 25, and 10 μg/mL PME. The cells were incubated at 37° C. for 30 minutes. 1 μM umbelliferyl was added, and the cells were incubated further for 10 minutes at 37° C.
The cells were then incubated at 37° C. for 45 minutes. 1 μM umbelliferyl was added, and the cells were incubated further for 10 minutes at 37° C.

[1] = test system: A. baumannii ATCC BAA-1797; assay: MIC on A. baumannii ATCC BAA-1797; details: Acinetobacter baumannii
How it was run: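 Cells adjusted to ~5×10^5 CFU/mL in MHB or MHB with 10%, 20% or 40% FBS, treated with two-fold serial compound dilutions in glass tubes and incubated 18 hours at 37° C. Growth read visually or by MTT (10% v/v, 10 min) with OD at 595 nm.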

HeLa cells [2] = assay: HeLa cell toxicity IC50 (MTT); details: Homo sapiens, 10% FBS
Protocol: HeLa cells: HeLa cells were trypsinized and counted in number of cells/mL using a hemocytometer. Cells were then plated at 4×10^3 HeLa cells/100 μL in tissue culture-treated 96-well plates in DMEM+1% penicillin/streptomycin (P/S)+10% FBS. HeLa cells were treated with 100 μM of a compound of interest and serially diluted two-fold. Samples were also prepared with no treatment, 1% DMSO, and 100 μM PAO. The cells were incubated for 48 hours at 37° C. in a humidified incubator with 5% CO2. 10% v/v MTT reagent (5 mg/mL stock) was added to each sample, and the samples were incubated for 2 hours before removing the supernatant and solubilizing the samples in 100 μL DMSO. OD readings were obtained at 595 nm. IC50 values were reported.

HeLa cells [3] = assay: HeLa cell toxicity IC50 (MTT); details: Homo sapiens
A. baumannii ATCC 15151 [4] = assay: Filamentation with ciprofloxacin and Compound 25 on A. baumannii; details: for cell morphology and growth: 18 hours
Protocol: A. baumannii ATCC 15151: […] The culture tubes were incubated for 18 hours at 37° C. After 18 hours incubation, took 3 μL of cells from each well and plated on microscope slide to observe the following: […]

A. baumannii ATCC 15151 [5] = assay: Synergy of kanamycin and Compound 25, colony counts
Protocol: Bacterial cells were prepared using methods described above. 500 μL aliquots of the adjusted bacterial cell suspensions were placed into borosilicate glass tubes, where the cell suspensions were treated with 12.5 μg/mL kanamycin, 1 μM or 2 μM Compound 25, or a combination of 12.5 μg/mL kanamycin plus 1 μM or 2 μM Compound 25. The culture tubes were incubated for 18 hours at 37° C. Colony counts were performed by 10-fold serially diluting the samples into fresh MHB and drip-streaking 10 μL from each dilution series onto MHA. The plates were incubated at 37° C. for 18 hours before the CFU/mL were determined by visual cell counts.
A. baumannii ATCC 15151 was grown from a glycerol stock by placing a small volume of cells onto a MHA plate. The MHA plate was incubated overnight at 37° C. A single colony was subsequently used to inoculate MHB to obtain a bacterial broth suspension. The MHB broth suspension was grown at 37° C. on a rotary shaking incubator (100 rpm) for 12 hours. The bacterial cell concentration was adjusted to ˜5×10^5 CFU/mL in MHB or MHB+40% FBS using OD at 595 nm. 500 μL aliquots of the adjusted bacterial cell suspensions were placed into borosilicate glass tubes. Cell suspensions were treated with 6 μg/mL or 12.5 μg/mL kanamycin, 1 μM, 2 μM, or 10 μM Compound 25, or a combination of 6 μg/mL or 12.5 μg/mL […] plus 1 μM, 2 μM, or 10 μM Compound 25. The culture tubes were incubated for 18 hours at 37° C. Colony counts were determined by 10-fold serially diluting the samples into fresh MHB and drip-streaking 10 μL from each dilution series onto MHA. The plates were incubated at 37° C. for 18 hours before the CFU/mL were determined by visual cell counts.

H. pylori Hp A-4 = assay: Direct comparison of Compound 26 in 5% FBS on H. pylori and A. baumannii
Protocol: A direct comparison of Compound 26 in 5% […] on H. pylori Hp A-4 and A. baumannii BAA-1797 was performed. The conditions were standard liquid culture conditions for each organism in 5% FBS. A lawn of H. pylori Hp A-4 on a blood agar plate was prepared. 1 μL of Compound 26 at various concentrations and 1 μL of 100% sterile DMSO were spotted on the blood agar plate. The plate was incubated for 4 days at 37° C. in 5% CO2.

[6] = ATCC 1797 / ATCC BAA-1797, 0% FBS, read-out: MIC (μM) in MDR A. baumannii ATCC 1797 0% FBS
[7] = ATCC 1797 / ATCC BAA-1797, 10% FBS, read-out: MIC (μM) in MDR A. baumannii ATCC 1797 10% FBS
[8] = ATCC 1797 / ATCC BAA-1797, read-out: MIC (μM) in MDR A. baumannii ATCC 1797 40% FBS, 40% FBS
[9] = ATCCBAA1797, 18 h, read-out: MIC in the presence of 40% FBS, A. baumannii ATCC BAA-1797, 40% FBS
[10] = ATCCBAA1797, Table 7, 10% FBS, read-out: MIC in 10% FBS
[11] = ATCCBAA1797, Table 7, no serum stated, read-out: MIC
[12] = ATCCBAA1797, read-out: MIC in 40% FBS (μM), Table 7, 40% FBS
[13] = HeLa, Table 7, read-out: IC50 on HeLa in 10% FBS
[14] = HeLa cells, read-out: IC50 10% FBS
[15] = HeLa, read-out: IC50 on HeLa in 40% FBS, Table 7
[16] = read-out: IC50 40% FBS, HeLa cells
[17] = ATCCBAA1797, A. baumannii ATCC BAA-1797, absence of serum, read-out: MIC in the absence of serum
[18] = […] Compound 25+50 ng/mL ciprofloxacin

| SMILES | MIC [1, 6] | MIC [1, 7] | MIC [1, 8] | MIC [1, 9] | MIC [1, 10] | MIC [1, 11] | MIC [1, 12] | IC50 (HeLa cells [2]; [13]) | IC50 (HeLa cells [2]; [14]) | IC50 (HeLa cells [3]; [15]) | IC50 (HeLa cells [3]; [16]) | MIC [1, 17] | also measured |
| --- | --- | --- | --- | --- | --- | --- | --- | --- | --- | --- | --- | --- | --- |
| Nc1cccc2[nH]cc(/C=N/Nc3ccc(Cl)cc3)c12 [Compound 14, (E)-3-((2-(4-chlorophenyl)hydrazineylidene)methyl)-1H-indol-4-amine] | 6 µM (≈ 1.71 µg/mL) | > 100 µM | 50 µM (≈ 14.2 µg/mL) | 50 µM | > 100 µM | 6 µM (≈ 1.71 µg/mL) | 50 µM (≈ 14.2 µg/mL) | 36.7 ± 3.8 µM | 36.7 ± 3.8 µM | 183 µM | 183 µM | – | inner membrane disruption (GUS fluorescence) (E. coli pNMT41; separate experiment, 12.5 μM Compound 14, 45 minutes): did not disrupt inner membrane; MIC ([1]; ATCCBAA1797, read-out: MIC in the absence of serum): 12.5 µM (≈ 3.56 µg/mL); MIC ([1]; ATCCBAA1797, read-out: MIC in the presence of 40% human serum, A. baumannii ATCC BAA-1797, 40% human serum): > 100 µM |
| Clc1ccc(N/N=C/c2c[nH]c3ccc(Br)cc23)cc1 [Compound 15, (E)-5-bromo-3-((2-(4-chlorophenyl)hydrazineylidene)methyl)-1H-indole] | 12.5 µM (≈ 4.36 µg/mL) | > 100 µM | 50 µM (≈ 17.4 µg/mL) | 100 µM | > 100 µM | 12.5 µM (≈ 4.36 µg/mL) | > 100 µM | 20.9 ± 1.5 µM | 20.9 ± 1.5 µM | 67.4 µM | 67.4 µM | 6 µM (≈ 2.09 µg/mL) | – |
| Brc1ccc(N/N=C/c2c[nH]c3cccc(OCc4ccccc4)c23)cc1.Cl [Compound 25, (E)-2-((4-(benzyloxy)-1H-indol-3-yl)methylene)-1-(4-bromophenyl)hydrazin-1-ium chloride] | 6 µM | > 100 µM | 50 µM | < 50 µM | > 100 µM | 6 µM | 50 µM | 30.4 ± 3.3 µM | 30.4 ± 3.3 µM | 101 µM | 101 µM | 6 µM | inner membrane disruption (GUS fluorescence) (E. coli pNMT41; 10 μM melittin, 6, 12, 24, 100 μM Compound 25, 30 minutes): did not disrupt the inner membrane; inhibition of ciprofloxacin-induced filamentation (A. baumannii ATCC 15151 [4]; [18]): only slightly inhibited; cell morphology and growth (A. baumannii ATCC 15151 [4]; [18]): elongated in morphology and growth inhibition was observed; cell morphology and growth (A. baumannii ATCC 15151 [4]; single agent: 50 ng/mL ciprofloxacin or […] Compound 25): morphologically normal and full growth was observed; synergy, logs of kill (A. baumannii ATCC 15151 [5]; 12.5 μg/mL kanamycin+1 μM Compound 25, 18 hours): 2.5 logs of kill; synergy, full cell death (A. baumannii ATCC 15151 [5]; 12.5 μg/mL kanamycin+2 μM Compound 25, 18 hours): 9 orders of magnitude; synergy, logs of kill (A. baumannii ATCC 15151 [5]; 40% FBS, 12.5 μg/mL kanamycin+10 μM Compound 25): 9 logs of kill; synergy, logs of kill (A. baumannii ATCC 15151 [5]; without serum, 6 μg/mL kanamycin+2 μM Compound 25): 8 logs of kill |
| Cl.Clc1ccc(N/N=C/c2c[nH]c3cccc(OCc4ccccc4)c23)cc1 [Compound 26, (E)-2-((4-(benzyloxy)-1H-indol-3-yl)methylene)-1-(4-chlorophenyl)hydrazin-1-ium] | 6 µM | > 100 µM | 100 µM | 50 µM | > 100 µM | 6 µM | 100 µM | 37.3 ± 1.8 µM | 37.3 ± 1.8 µM | 58.2 µM | 58.2 µM | 5 µM | increase in anti-bacterial activity for H. pylori compared to A. baumannii (H. pylori Hp A-4): 16.6 fold; MIC ([1]; ATCCBAA1797, A. baumannii ATCC BAA-1797, 10% FBS, read-out: MIC in the presence of 10% FBS): > 100 µM |
| Cl.Fc1ccc(N/N=C/c2c[nH]c3cccc(OCc4ccccc4)c23)cc1 [Compound 27, (E)-2-((4-(benzyloxy)-1H-indol-3-yl)methylene)-1-(4-fluorophenyl)hydrazin-1-ium] | 12.5 µM | > 100 µM | 50 µM | 25 µM | > 100 µM | 12.5 µM | 50 µM | 25.8 ± 5.2 µM | 25.8 ± 5.2 µM | 69.7 µM | 69.7 µM | 5 µM | – |
